Test results from patent US5696083A, “Personal care composition containing pyrithione and polymyxin” (Olin Corporation, priority 1994, dated 1997).

Assays:
Assay in all cases: MIC in Tryptic Soy Broth, compounds alone and in mixtures
Assay type in all cases: cell-based
Fusarium solani = conditions: 28° C.; for Minimum Inhibitory Concentration, Compound Used Alone: Tryptic Soy Broth
Description: (§1) Determinations of minimum inhibitory concentrations (MIC's) of the two compounds (pyrithione salts and/or polymyxin sulfate) in a nutrient broth (alone and in mixtures) were conducted to evaluate interactions. Stock solutions of pyrithione salts and/or polymyxin salts were diluted in Tryptic Soy Broth (Difco), and the dilutions were inoculated with an equal volume of bacterial culture (10^6 /ml) or fungal spore suspension (10^5 /ml) in Tryptic Soy Broth and incubated at 28° C. for 3-7 days.
(§2) The interactions of the antimicrobials were determined according to accepted procedures (M. C. Berenbaum [Tables 1 and 2] and P. F. Dougherty "Microdilution Transfer Plate Technique for Determining In Vitro Synergy of Antimicrobial Agents", ANTIMICROBIAL AGENTS AND CHEMOTHERAPY, Vol. 11, No. 2, p. 225-228 (Feb. 1977, American Society for Microbiology) [Tables 3 and 4]). The concentration of each agent in the combination that inhibits the organisms is expressed as a fraction of the concentration that causes the same effect when the same agent is tested alone (i.e., its fractional inhibitory concentration, FIC). If the sum of the FIC's is 1, the combination is additive in its antimicrobial effect; if the sum is <1, the combination is synergistic; and if the sum is >1, the combination is antagonistic.
(§3) ^a Compounds were serially diluted in Tryptic soy Broth (DIFCO),
(§4) ^b Each dilution contained 10^6 bacteria/ml of 10^5 fungi/ml.
(§5) ^a Stock solutions of ZP in dimethylsulfoxide and PB in sterile water

Chaetomium globosium = conditions: 28° C.; for Minimum Inhibitory Concentration, Compound Used Alone: Tryptic Soy Broth
Description: as §1, §2, §3, §4, §5

Pseudomonas aeruginosa = conditions: 28° C.; for Minimum Inhibitory Concentration, Compound Used Alone: Tryptic Soy Broth
Description: as §1, §2, §3, §4, §5

Citrobacter freundii = conditions: 28° C.; for Minimum Inhibitory Concentration, Compound Used Alone: Tryptic Soy Broth
Description: as §1, §2, §3, §4, §5

[1] = test system: Trichophyton mentagrophytes; conditions: 28° C.; for Minimum Inhibitory Concentration, Compound Used Alone: Tryptic Soy Broth
Description: as §1, §2, §3, §4, §5

Candida albicans = conditions: 28° C.; for Minimum Inhibitory Concentration, Compound Used Alone: Tryptic Soy Broth
Description: as §1, §2, §3, §4, §5

Pseudomonas rubescens = conditions: 28° C.; for Minimum Inhibitory Concentration, Compound Used Alone: Tryptic Soy Broth
Description: as §1, §2, §3, §4, §5

Aspergillus niger = conditions: 28° C.; for Minimum Inhibitory Concentration, Compound Used Alone: Tryptic Soy Broth
Description: as §1, §2, §3, §4, §5

Pseudomonas Stutzeri = conditions: 28° C.; for Minimum Inhibitory Concentration, Compound Used Alone: Tryptic Soy Broth
Description: as §1, §2, §3, §4, §5

Cephalosporium sp. = conditions: 28° C.; for Minimum Inhibitory Concentration, Compound Used Alone: Tryptic Soy Broth
Description: as §1, §2, §3, §4, §5

Pseudomonas oleovorans = conditions: 28° C.; for Minimum Inhibitory Concentration, Compound Used Alone: Tryptic Soy Broth
Description: as §1, §2, §3, §4, §5

Proteus mirabilis = conditions: 28° C.; for Minimum Inhibitory Concentration, Compound Used Alone: Tryptic Soy Broth
Description: as §1, §2, §3, §4, §5

Penicillin pinophilium = conditions: 28° C.; for Minimum Inhibitory Concentration, Compound Used Alone: Tryptic Soy Broth
Description: as §1, §2, §3, §4, §5

Aureobasidium pullulans = conditions: 28° C.; for Minimum Inhibitory Concentration, Compound Used Alone: Tryptic Soy Broth
Description: as §1, §2, §3, §4, §5

Alcaligens faecalis = conditions: 28° C.; for Minimum Inhibitory Concentration, Compound Used Alone: Tryptic Soy Broth
Description: as §1, §2, §3, §4, §5

Pseudomonas fluorescens = conditions: 28° C.; for Minimum Inhibitory Concentration, Compound Used Alone: Tryptic Soy Broth
Description: as §1, §2, §3, §4, §5

Gliocladium virens = conditions: 28° C.; for Minimum Inhibitory Concentration, Compound Used Alone: Tryptic Soy Broth
Description: as §1, §2, §3, §4, §5

Fusarium sp. = conditions: 28° C.
Description: as §3, §4, §5

[2] = Table 1, 6-7 days, PB sulfate 7610 units/mg
[3] = Table 1, concentration of the component in SP+PB mixture, SP/PB ratio 1, 6-7 days
[4] = Table 2, 7 days, PB sulfate 7730 units/mg
[5] = Table 2, concentration of the component in ZP+PB mixture, ZP/PB ratio 1/8-1, 7 days
[6] = Table 1, 3 days, PB sulfate 7610 units/mg
[7] = Table 2, 6 days, PB sulfate 7730 units/mg
[8] = Table 1, concentration of the component in SP+PB mixture, SP/PB ratio 1/20-1/10, 6-7 days
[9] = Table 2, concentration of the component in ZP+PB mixture, ZP/PB ratio 1/32-1/8, 7 days
[10] = Table 1, concentration of the component in SP+PB mixture, SP/PB ratio 650, 3 days

Polymyxin B sulfate [PB]
Minimum Inhibitory Concentration, Compound Used Alone (Fusarium solani; [2]): 128.0 ppm
Minimum Inhibitory Concentration, Mixture (Fusarium solani; [3]): 32.0 ppm
Minimum Inhibitory Concentration, Compound Used Alone (Fusarium solani; [4]): 85.3 ppm
Minimum Inhibitory Concentration, Mixture (Fusarium solani; [5]): 37.3 ppm
Minimum Inhibitory Concentration, Compound Used Alone (Chaetomium globosium; [2]): 24.0 ppm
Minimum Inhibitory Concentration, Mixture (Chaetomium globosium; Table 1, concentration of the component in SP+PB mixture, SP/PB ratio 1/10-1/5, 6-7 days): 16.0 ppm
Minimum Inhibitory Concentration, Compound Used Alone (Chaetomium globosium; [4]): 85.3 ppm
Minimum Inhibitory Concentration, Mixture (Chaetomium globosium; [5]): 37.3 ppm
Minimum Inhibitory Concentration, Compound Used Alone (Pseudomonas aeruginosa; [6]): 0.7 ppm
Minimum Inhibitory Concentration, Mixture (Pseudomonas aeruginosa; Table 1, concentration of the component in SP+PB mixture, SP/PB ratio 163-325, 3 days): 0.3 ppm
Minimum Inhibitory Concentration, Compound Used Alone (Pseudomonas aeruginosa; [7]): 1.0 ppm
Minimum Inhibitory Concentration, Mixture (Pseudomonas aeruginosa; Table 2, concentration of the component in ZP+PB mixture, ZP/PB ratio 128-256, 6 days): 0.5 ppm
Minimum Inhibitory Concentration, Compound Used Alone (Citrobacter freundii; [6]): 0.5 ppm
Minimum Inhibitory Concentration, Mixture (Citrobacter freundii; Table 1, concentration of the component in SP+PB mixture, SP/PB ratio 41-81, 3 days): 0.1 ppm
Minimum Inhibitory Concentration, Compound Used Alone (Citrobacter freundii; [7]): 0.4 ppm
Minimum Inhibitory Concentration, Mixture (Citrobacter freundii; Table 2, concentration of the component in ZP+PB mixture, ZP/PB ratio 16-64, 6 days): 0.1 ppm
Minimum Inhibitory Concentration, Compound Used Alone [1, 2]: 32.0 ppm
Minimum Inhibitory Concentration, Mixture ([1]; Table 1, concentration of the component in SP+PB mixture, SP/PB ratio 1/10-1/3, 6-7 days): 26.7 ppm
Minimum Inhibitory Concentration, Compound Used Alone [1, 4]: 53.0 ppm
Minimum Inhibitory Concentration, Mixture ([1]; Table 2, concentration of the component in ZP+PB mixture, ZP/PB ratio 1/4-1/2, 7 days): 26.7 ppm
Minimum Inhibitory Concentration, Compound Used Alone (Candida albicans; [2]): 256.0 ppm
Minimum Inhibitory Concentration, Mixture (Candida albicans; [8]): 64.0 ppm
Minimum Inhibitory Concentration, Compound Used Alone (Candida albicans; [4]): 341.3 ppm
Minimum Inhibitory Concentration, Mixture (Candida albicans; [9]): 74.7 ppm
Minimum Inhibitory Concentration, Compound Used Alone (Pseudomonas rubescens; [6]): < 0.1 ppm
Minimum Inhibitory Concentration, Mixture (Pseudomonas rubescens; [10]): < 0.1 ppm
Minimum Inhibitory Concentration, Compound Used Alone (Pseudomonas rubescens; [7]): < 0.1 ppm
Minimum Inhibitory Concentration, Mixture (Pseudomonas rubescens; Table 2, concentration of the component in ZP+PB mixture, ZP/PB ratio 256, 6 days): < 0.1 ppm
Minimum Inhibitory Concentration, Compound Used Alone (Aspergillus niger; [2]): 1536.0 ppm
Minimum Inhibitory Concentration, Mixture (Aspergillus niger; Table 1, concentration of the component in SP+PB mixture, SP/PB ratio 1/10, 6-7 days): 256.0 ppm
Minimum Inhibitory Concentration, Compound Used Alone (Aspergillus niger; [4]): 1024.0 ppm
Minimum Inhibitory Concentration, Mixture (Aspergillus niger; [9]): 298.7 ppm
Minimum Inhibitory Concentration, Compound Used Alone (Pseudomonas Stutzeri; [6]): 0.3 ppm
Minimum Inhibitory Concentration, Mixture (Pseudomonas Stutzeri; Table 1, concentration of the component in SP+PB mixture, SP/PB ratio 325-650, 3 days): 0.1 ppm
Minimum Inhibitory Concentration, Compound Used Alone (Pseudomonas Stutzeri; [7]): 0.3 ppm
Minimum Inhibitory Concentration, Mixture (Pseudomonas Stutzeri; Table 2, concentration of the component in ZP+PB mixture, ZP/PB ratio 16-128, 6 days): < 0.1 ppm
Minimum Inhibitory Concentration, Compound Used Alone (Cephalosporium sp.; [2]): 256.0 ppm
Minimum Inhibitory Concentration, Mixture (Cephalosporium sp.; [3]): 12.0 ppm
Minimum Inhibitory Concentration, Compound Used Alone (Cephalosporium sp.; [4]): 170.7 ppm
Minimum Inhibitory Concentration, Mixture (Cephalosporium sp.; Table 2, concentration of the component in ZP+PB mixture, ZP/PB ratio 1/16-1/8, 7 days): 42.7 ppm
Minimum Inhibitory Concentration, Compound Used Alone (Pseudomonas oleovorans; [6]): 0.3 ppm
Minimum Inhibitory Concentration, Mixture (Pseudomonas oleovorans; [10]): < 0.1 ppm
Minimum Inhibitory Concentration, Compound Used Alone (Pseudomonas oleovorans; [7]): 0.5 ppm
Minimum Inhibitory Concentration, Mixture (Pseudomonas oleovorans; Table 2, concentration of the component in ZP+PB mixture, ZP/PB ratio 16-32, 6 days): 0.2 ppm
Minimum Inhibitory Concentration, Compound Used Alone (Proteus mirabilis; [6]): > 2048.0 ppm
Minimum Inhibitory Concentration, Mixture (Proteus mirabilis; Table 1, concentration of the component in SP+PB mixture, SP/PB ratio 1/20-1, 3 days): 288.0 ppm
Minimum Inhibitory Concentration, Compound Used Alone (Proteus mirabilis; [7]): > 2048.0 ppm
Minimum Inhibitory Concentration, Mixture (Proteus mirabilis; Table 2, concentration of the component in ZP+PB mixture, ZP/PB ratio 1/32, 6 days): 64.0 ppm
Minimum Inhibitory Concentration, Compound Used Alone (Penicillin pinophilium; [2]): 256.0 ppm
Minimum Inhibitory Concentration, Mixture (Penicillin pinophilium; [8]): 48.0 ppm
Minimum Inhibitory Concentration, Compound Used Alone (Penicillin pinophilium; [4]): 128.0 ppm
Minimum Inhibitory Concentration, Mixture (Penicillin pinophilium; Table 2, concentration of the component in ZP+PB mixture, ZP/PB ratio 1/8, 7 days): 32.0 ppm
Minimum Inhibitory Concentration, Compound Used Alone (Aureobasidium pullulans; [2]): 256.0 ppm
Minimum Inhibitory Concentration, Mixture (Aureobasidium pullulans; [8]): 48.0 ppm
Minimum Inhibitory Concentration, Compound Used Alone (Aureobasidium pullulans; [4]): 288.0 ppm
Minimum Inhibitory Concentration, Mixture (Aureobasidium pullulans; Table 2, concentration of the component in ZP+PB mixture, ZP/PB ratio 1/32-1/16, 7 days): 80.0 ppm
Minimum Inhibitory Concentration, Compound Used Alone (Alcaligens faecalis; [6]): 1.4 ppm
Minimum Inhibitory Concentration, Mixture (Alcaligens faecalis; Table 1, concentration of the component in SP+PB mixture, SP/PB ratio 5-41, 3 days): 0.5 ppm
Minimum Inhibitory Concentration, Compound Used Alone (Alcaligens faecalis; [7]): 3.3 ppm
Minimum Inhibitory Concentration, Mixture (Alcaligens faecalis; Table 2, concentration of the component in ZP+PB mixture, ZP/PB ratio 8-32, 6 days): 0.6 ppm
Minimum Inhibitory Concentration, Compound Used Alone (Pseudomonas fluorescens; [6]): 10.7 ppm
Minimum Inhibitory Concentration, Mixture (Pseudomonas fluorescens; Table 1, concentration of the component in SP+PB mixture, SP/PB ratio 3-10, 3 days): 1.2 ppm
Minimum Inhibitory Concentration, Compound Used Alone (Pseudomonas fluorescens; [7]): 6.7 ppm
Minimum Inhibitory Concentration, Mixture (Pseudomonas fluorescens; Table 2, concentration of the component in ZP+PB mixture, ZP/PB ratio 8-16, 6 days): 0.4 ppm
Minimum Inhibitory Concentration, Compound Used Alone (Gliocladium virens; [2]): 74.7 ppm
Minimum Inhibitory Concentration, Mixture (Gliocladium virens; Table 1, concentration of the component in SP+PB mixture, SP/PB ratio 1/10-1, 6-7 days): 21.3 ppm
Minimum Inhibitory Concentration, Compound Used Alone (Gliocladium virens; [4]): 64.0 ppm
Minimum Inhibitory Concentration, Mixture (Gliocladium virens; Table 2, concentration of the component in ZP+PB mixture, ZP/PB ratio 1-2, 7 days): 20.0 ppm
Minimum Inhibitory Concentration, Mixture (Fusarium sp.; [3]): 32.0 ppm
Minimum Inhibitory Concentration, Compound Used Alone (Fusarium sp.; Table 2, alone, Tryptic Soy Broth, 7 days, PB sulfate 7730 units/mg): 106.7 ppm
